Laboratory results reported in patent publication US20240285552A1 (priority 2020, published 2024).
Where a name gives a salt, the structure may show the parent alone. Read-outs that look alike come from different tables or passages of the source.

Key:
[1] = test system: B.1.617.2 Delta Variant of SARS-CoV-2; assay: microbe, parasite or virus in culture; assay type: cell-based; conditions: for IC50: read-out: IC 50 against B.1.617.2 Delta Variant Infection-Induced CPE
[2] = test system: SARS-CoV-2 spike (B.1.617.2 Delta Variant) pseudotyped lentivirus; assay: microbe, parasite or virus in culture; assay type: cell-based; conditions: for inhibition at 10 µM: HEK293, 10 μM
[3] = Severe acute respiratory syndrome coronavirus 2, Vero C1008, Vero E6
[4] = Lentivirus, read-out: Percent (%) Inhibition of Pseudo virus Entry in HEK293 Kidney Cells, B.1.617.2 Delta Variant

Row | Structure (SMILES) | Conc. at Max. % Inhibition [1] [µM] | Max. Inhibition [1] [%] | IC50 [1, 3] [µM] | IC50 ([1]; Vero E6) [µM] | Percent (%) Inhibition of Pseudo virus Entry in HEK293 Kidney Cells, B.1.617.2 Delta Variant ([2]; 100 μM) | inhibition at 10 µM [2, 4] [%] | Percent (%) Inhibition of Pseudo virus Entry in HEK293 Kidney Cells, B.1.617.2 Delta Variant ([2]; 50 μM, hydrochloride) [%] | Percent (%) Inhibition of Pseudo virus Entry in HEK293 Kidney Cells, B.1.617.2 Delta Variant ([2]; 100 μM, hydrochloride) [%] | inhibition at 25 µM ([2]; Lentivirus, HEK293, 25 μM, read-out: Percent (%) Inhibition of Pseudo virus Entry in HEK293 Kidney Cells, B.1.617.2 Delta Variant) [%] | inhibition at 50 µM ([2]; Lentivirus, HEK293, 50 μM, read-out: Percent (%) Inhibition of Pseudo virus Entry in HEK293 Kidney Cells, B.1.617.2 Delta Variant) [%] | inhibition at 100 µM ([2]; Lentivirus, HEK293, 100 μM, read-out: Percent (%) Inhibition of Pseudo virus Entry in HEK293 Kidney Cells, B.1.617.2 Delta Variant) [%] | IC50 ([1]; Vero E6, hydrochloride) [µM]
1 | CCOC(=O)[C@H]1O[C@@H]1C(=O)N[C@@H](CC(C)C)C(=O)NCCC(C)C [Aloxistatin] | 15 | 85.17 | 9.84 | 9.82 | – | – | – | – | – | – | – | –
2 | CN(Cc1cc(Br)cc(Br)c1N)C1CCCCC1 [BHH, Bromhexine hydrochloride] | 18.75 | 74.57 | 17.7 | – | blocked viral entry completely | ~10 | – | – | – | – | – | –
3 | CCN(CC)CCCC(C)Nc1ccnc2cc(Cl)ccc12 (stereo not drawn) [Chloroquine] | 15 | – | 8.3 | – | – | – | – | – | – | – | – | –
4 | Nc1c(Br)cc(Br)cc1CN[C@H]1CC[C@H](O)CC1 [AMB, 4-[(2-amino-3,5-dibromophenyl)methylamino]cyclohexan-1-ol; hydrochloride] | 150 | 88.38 | ~98 | – | – | 6 | 48 | 95 | 19 | 50 | 100 | 98.2
5 | CCC(CC)COC(=O)[C@H](C)N[P@](=O)(OC[C@H]1O[C@@](C#N)(c2ccc3c(N)ncnn23)[C@H](O)[C@@H]1O)Oc1ccccc1 [Remdesivir] | 15 | 104.26 | 8.24 | – | – | – | – | – | – | – | – | –
6 | CC(C)(C)[C@H](NC(=O)C(F)(F)F)C(=O)N1C[C@H]2[C@@H]([C@H]1C(=O)N[C@H](C#N)C[C@@H]1CCNC1=O)C2(C)C [PF-07321332] | 10 | 96.28 | – | 1.98 | – | – | – | – | – | – | – | –
